The values that follow come from PubChem BioAssay AID1845195 (Molecular Pharmacology Branch, DTP, NCI, 2023).

“And” between values parts separate entries of the source, which are not always exact repeats. Equal entries are not always repeated.

For this assay, the system named is 156681-154-R-J1 tumor spheroid viability. Briefly: Anticancer human tumor 156681-154-R-J1 patient-derived melanoma cell line growth inhibition. The following applies: spheroids with HUVEC and MSC; for viability, T/C: stronger effect = lower value. In a few lines: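 Single agents and combinations were tested on spheroids built from tumor cells plus HUVEC and hMSC, at half-log dilutions starting at or near clinical Cmax, else 10 microM; final DMSO 0.25% (v/v).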

Where [1] appears, read: curve of first compound, second compound 0.003 µM.
Setting [2] is: second compound 0.003 µM, first compound 0.00949 µM.
[3] abbreviates: second compound 0.003 µM, first compound 0.03 µM.
[4] abbreviates: second compound 0.003 µM, first compound 0.0949 µM.
Where [5] appears, read: second compound 0.003 µM, first compound 0.3 µM.
Setting [6] is: second compound 0.003 µM, first compound 0.949 µM.
Setting [7] is: second compound 0.003 µM, first compound 3 µM.

For orientation: IC50 means the concentration needed to halve the response being measured. As usually defined, the viability, T/C is the ratio of treated to control.
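Also: spheroids exposed to compounds for 7 days before readout.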
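For viability, T/C in this document: percent of vehicle control viability where 100% = DMSO-treated spheroids.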

Take `CNCc1ccc(-c2cc(-c3nc(-c4ccc(S(=O)(=O)C(C)C)cc4)cnc3N)on2)cc1` + CC[C@@]1(O)C(=O)OCc2c1cc1n(c2=O)Cc2cc3c(CN(C)C)c(O)ccc3nc2-1: the IC50 by setting is: under setting [1], 733 nM; (curve of first compound, second compound 0.00949 µM) 451 nM; (curve of first compound, second compound 0.03 µM) 296 nM; (curve of first compound, second compound 0.0949 µM) less than 9.49 nM; (curve of first compound, second compound 0.3 µM) less than 9.49 nM. The viability, T/C reads like this: under setting [2], 103%; under setting [3], 93.6%; under setting [4], 82.1%; under setting [5], 65.2%; under setting [6], 46.8%; under setting [7], 20.3%. The viability, T/C runs as follows: (second compound 0.00949 µM, first compound 0.00949 µM) 136%; (second compound 0.00949 µM, first compound 0.03 µM) 92.3%; (second compound 0.00949 µM, first compound 0.0949 µM) 73.8%; (second compound 0.00949 µM, first compound 0.3 µM) 58.8%; (second compound 0.00949 µM, first compound 0.949 µM) 46.8%; (second compound 0.00949 µM, first compound 3 µM) 7.92%. Besides, the viability, T/C was 66% (second compound 0.03 µM, first compound 0.00949 µM); 60.1% (second compound 0.03 µM, first compound 0.03 µM); 60.1% (second compound 0.03 µM, first compound 0.0949 µM); 50.4% (second compound 0.03 µM, first compound 0.3 µM); 27.5% (second compound 0.03 µM, first compound 0.949 µM); 7.5% (second compound 0.03 µM, first compound 3 µM). The viability, T/C is, setting by setting: (second compound 0.0949 µM, first compound 0.00949 µM) 17.7%; (second compound 0.0949 µM, first compound 0.03 µM) 19.3%; (second compound 0.0949 µM, first compound 0.0949 µM) 24.2%; (second compound 0.0949 µM, first compound 0.3 µM) 14.5%; (second compound 0.0949 µM, first compound 0.949 µM) 12.8%; (second compound 0.0949 µM, first compound 3 µM) 0.15%. The viability, T/C was 31.1% (second compound 0.3 µM, first compound 0.00949 µM); 26.9% (second compound 0.3 µM, first compound 0.03 µM); 24.2% (second compound 0.3 µM, first compound 0.0949 µM); 24.2% (second compound 0.3 µM, first compound 0.3 µM); 14.8% (second compound 0.3 µM, first compound 0.949 µM); 10% (second compound 0.3 µM, first compound 3 µM).

As for `CNCc1ccc(-c2cc(-c3nc(-c4ccc(S(=O)(=O)C(C)C)cc4)cnc3N)on2)cc1` + COc1cc2c(cc1O)CCNC21CSC2c3c(OC(C)=O)c(C)c4c(c3C(COC1=O)N1C(O)C3Cc5cc(C)c(OC)c(O)c5C(C21)N3C)OCO4, the IC50 (curve of first compound, second compound 30 pM) came to 1120 nM; the IC50 (curve of first compound, second compound 94.9 pM) is 870 nM; the IC50 (curve of first compound, second compound 0.0003 µM) was 581 nM; the concentration for half-maximal inhibition (IC50) (curve of first compound, second compound 0.000949 µM) was less than 9.49 nM; the IC50 under setting [1] was less than 9.49 nM. For the same compound, the viability, T/C runs as follows: (second compound 30 pM, first compound 0.00949 µM) 119%; (second compound 30 pM, first compound 0.03 µM) 103%; (second compound 30 pM, first compound 0.0949 µM) 99%; (second compound 30 pM, first compound 0.3 µM) 85.2%; (second compound 30 pM, first compound 0.949 µM) 53.5%; (second compound 30 pM, first compound 3 µM) 17%. Further, the viability, T/C was 112% (second compound 94.9 pM, first compound 0.00949 µM); 113% (second compound 94.9 pM, first compound 0.03 µM); 101% (second compound 94.9 pM, first compound 0.0949 µM); 77.1% (second compound 94.9 pM, first compound 0.3 µM); 49.3% (second compound 94.9 pM, first compound 0.949 µM); 2.05% (second compound 94.9 pM, first compound 3 µM). The viability, T/C reads like this: (second compound 0.0003 µM, first compound 0.00949 µM) 90.6%; (second compound 0.0003 µM, first compound 0.03 µM) 100%; (second compound 0.0003 µM, first compound 0.0949 µM) 90.4%; (second compound 0.0003 µM, first compound 0.3 µM) 69.1%; (second compound 0.0003 µM, first compound 0.949 µM) 35.4%; (second compound 0.0003 µM, first compound 3 µM) 1.71%. Besides, the viability, T/C was 3.5% (second compound 0.000949 µM, first compound 0.00949 µM); 5.91% (second compound 0.000949 µM, first compound 0.03 µM); 4.37% (second compound 0.000949 µM, first compound 0.0949 µM); 3.55% (second compound 0.000949 µM, first compound 0.3 µM); 1.04% (second compound 0.000949 µM, first compound 0.949 µM); 0.15% (second compound 0.000949 µM, first compound 3 µM). Further, the viability, T/C was 0.16% under setting [2]; 0.17% under setting [3]; 0.17% under setting [4]; 0.12% under setting [5]; 0.12% under setting [6]; 0.24% under setting [7].

For the compound `COc1cc2c(cc1O)CCNC21CSC2c3c(OC(C)=O)c(C)c4c(c3C(COC1=O)N1C(O)C3Cc5cc(C)c(OC)c(O)c5C(C21)N3C)OCO4` (stereo not drawn), the viability, T/C by setting is: (compound 30 pM) 95.8% [middle of 10 runs]; (compound 94.9 pM) 101% [middle of 10 runs]; (compound 0.0003 µM) 80.7% [middle of 10 runs]; (compound 0.000949 µM) 4.41% [middle of 10 runs]; (compound 0.003 µM) 0.17% [middle of 9 runs]. Also, the IC50 (compound alone, run of 10/25/2019) is 0.477 nM [middle of 10 runs].

Take `COc1cc(C)[nH]c(=O)c1CN1CCc2c(Cl)cc(C(OC)C3COC3)c(Cl)c2C1=O` (stereo not drawn): the viability, T/C (compound 0.0316 µM) is 84.3% and 79.3% and 103%; the viability, T/C (compound 0.1 µM) was 96.4% and 99.4% and 110%; the viability, T/C (compound 0.316 µM) was 99% and 102% and 105%; the viability, T/C (compound 1 µM) is 91.7% and 88.1% and 112%; the viability, T/C (compound 3.16 µM) is 86% and 95.8% and 122%; the viability, T/C (compound 10 µM) was 107% and 93% and 118%. In addition, the IC50 (curve of compound) was more than 10000 nM.
